Assay results from US20090068744A1, “VITREOUS CELL LINE” (SENJU PHARMACEUTICAL CO., LTD., priority 2006, published 2009).

Legend:
[1] = system: VEGF mRNA expression by a vitreous cell line; assay: VEGF mRNA expression by RT-PCR after cytokine stimulation of the vitreous cell line; type: cell-based, swine; conditions: cytokine 10 ng/ml, up to 48 hours; FIG. 7, FIG. 9
Protocol: Changes of VEGF expression due to cytokine stimulation in the vitreous cell line established in Example 1 were examined. The expression of VEGF at an mRNA level was examined by RT-PCR, and the expression at a protein level was examined by ELISA.
To be specific, when the vitreous cell line reached 50-60% confluent, the medium for the cells was exchanged with DMEM containing 1% bovine serum. […] Total RNA was extracted from the stimulated cells, cDNA was synthesized, and PCR was conducted using VEGF primers. The medium of the stimulated cells was used for ELISA. Since an appropriate antibody to swine VEGF is not available, VEGF protein concentration was measured by ELISA using an antibody to human VEGF, and the result was calculated as a reference value led from a human VEGF standard product. PCR was conducted using TOYOBO KOD plus kit and Gene PCR System 9700 (Applied Biosystem). The conditions of PCR were as follows:
95° C. 120 seconds; (95° C. 15 seconds, 62° C. 30 seconds, 68° C. 30 seconds)×30 cycles; 68° C. 90 seconds. ELISA was entrusted to Mitsubishi BCL.

[2] = system: HAS2 expression by a vitreous cell line; assay: HAS2 mRNA expression by RT-PCR after cytokine stimulation of the vitreous cell line; type: cell-based, swine; conditions: cell line transfected with Smad2, 3 or 4; FIG. 5
Protocol: Next, expression of hyaluronic acid synthase (HAS)2 and the effect of PDGF-BB and/or TGF-β1 on the hyaluronic acid production in the established vitreous cell line were examined. The expression was observed by RT-PCR.
To be specific, when the vitreous cell line was 50-60% confluent, the medium of the cells was exchanged with DMEM containing 1% bovine serum and, after culturing for 24 hr, the cells were stimulated with TGF-β1 (10 ng/ml) and PDGF-BB (10 ng/ml). In a part of the examination, Smad2, 3 or 4 was transfected into the cell line after 6 hr from the medium exchange. The cells and culture supernatant were recovered at 3, 6, 24 and 48 hr after the cytokine stimulation (FIG. 2). Total RNA was extracted from the cells, cDNA was synthesized, and RT-PCR was performed using primers specific to HAS2. Using Roche FastStart High Fidelity PCR System, PCR was performed on Gene Amp PCR System 9700 (Applied Biosystems). The PCR conditions were as follows:
95° C. 2 min.→(95° C. 30 seconds→X° C. 30 seconds→72° C. […])×Y cycle→72° C. 7 min
X=60, Y=25 . . . beta-Actin

Row | Substance | VEGF mRNA expression level [1] | expression of HAS2 under forced expression of Smad2, 3 or 4 [2]
1 | IL-1β: cytokine used to stimulate the vitreous cell line (10 ng/ml) | a significant change in the VEGF mRNA expression level was not observed | –
2 | IL-6: cytokine named among other cytokines used for stimulation | a significant change in the VEGF mRNA expression level was not observed | –
3 | PDGF-AA: cytokine used to stimulate the vitreous cell line (10 ng/ml) | a significant change in the VEGF mRNA expression level was not observed | –
4 | TGF-β1: cytokine used to stimulate the vitreous cell line (10 ng/ml) | – | resulted in the expression of HAS2
5 | TGFβ | a significant change in the VEGF mRNA expression level was not observed | –
6 | TNFα | a significant change in the VEGF mRNA expression level was not observed | –
